This is an account of results in PMC10981597 (Amino Acids, 2024).

Data set [1] is classed as physicochemical. The settings on record: pH 7.4.
The conditions of data set [2]: human, serum.
The format of data set [3] is physicochemical. The note with it: pH 6.5.

Molecules are shown by their SMILES.

As a reminder, the fraction remaining is the share of the starting amount still present when the sample was taken. Read a high fraction remaining as greater stability. With `CCCCCCCCCCCCCCNCCCC[C@@H]1NC(=O)[C@@H](N)CSSC[C@@H]2NC(=O)[C@@H]3CSSC[C@@H](C(N)=O)NC(=O)[C@H](CCCCN)NC(=O)CNC(=O)[C@H](CO)NC(=O)[C@H](CCCNC(=N)N)NC(=O)[C@H](CSSC[C@H](NC(=O)[C@H](CCCCN)NC(=O)[C@H](C)NC(=O)CNC(=O)[C@H](CCCCN)NC(=O)CNC1=O)C(=O)N[C@@H](CO)C(=O)N[C@@H](CCCNC(=N)N)C(=O)N[C@@H](CC(C)C)C(=O)N[C@@H](CCSC)C(=O)N[C@@H](Cc1ccc(O)cc1)C(=O)N[C@@H](CC(=O)O)C(=O)N3)NC(=O)[C@H](CO)NC(=O)CNC(=O)[C@H]([C@@H](C)O)NC2=O` [K2-MVIIA], the “ANS fluorescence intensity with increasing peptide concentration (self-assembly)” value in data set [1] is “significant increase in fluorescence intensity”. This compound also registered a share remaining at 24 h in data set [2] of 78.7%. The “self-assembled morphology by TEM” value in data set [3] was “nanomicellar structures”.
For the compound `CCCCCCCCCCCCCCNCCCC[C@@H]1NC(=O)CNC(=O)[C@H](CCCCNCCCCCCCCCCCCCC)NC(=O)[C@@H](N)CSSC[C@@H]2NC(=O)[C@@H]3CSSC[C@@H](C(N)=O)NC(=O)[C@H](CCCCN)NC(=O)CNC(=O)[C@H](CO)NC(=O)[C@H](CCCNC(=N)N)NC(=O)[C@H](CSSC[C@H](NC(=O)[C@H](CCCCN)NC(=O)[C@H](C)NC(=O)CNC1=O)C(=O)N[C@@H](CO)C(=O)N[C@@H](CCCNC(=N)N)C(=O)N[C@@H](CC(C)C)C(=O)N[C@@H](CCSC)C(=O)N[C@@H](Cc1ccc(O)cc1)C(=O)N[C@@H](CC(=O)O)C(=O)N3)NC(=O)[C@H](CO)NC(=O)CNC(=O)[C@H]([C@@H](C)O)NC2=O` [K2-K4-MVIIA], in data set [1], the “ANS fluorescence intensity with increasing peptide concentration (self-assembly)” value is recorded as “significant increase in fluorescence intensity”. Besides, the amount remaining at 24 h in data set [2] is 75.6%. Besides, the “self-assembled morphology by TEM” value in data set [3] was “nanomicellar structures”.
As to `CSCC[C@@H]1NC(=O)[C@H](CC(C)C)NC(=O)[C@H](CCCNC(=N)N)NC(=O)[C@H](CO)NC(=O)[C@@H]2CSSC[C@@H]3NC(=O)[C@H](CO)NC(=O)CNC(=O)[C@H]([C@@H](C)O)NC(=O)[C@H](CSSC[C@H](N)C(=O)N[C@@H](CCCCN)C(=O)NCC(=O)N[C@@H](CCCCN)C(=O)NCC(=O)N[C@@H](C)C(=O)N[C@@H](CCCCN)C(=O)N2)NC(=O)[C@H](CSSC[C@@H](C(N)=O)NC(=O)[C@H](CCCCN)NC(=O)CNC(=O)[C@H](CO)NC(=O)[C@H](CCCNC(=N)N)NC3=O)NC(=O)[C@H](CC(=O)O)NC(=O)[C@H](Cc2ccc(O)cc2)NC1=O` [MVIIA, ω-conotoxin MVIIA, reference compound], the “ANS fluorescence intensity with increasing peptide concentration (self-assembly)” value in data set [1] was “almost no increase in fluorescence intensity”. Moreover, in data set [3], the “self-assembled morphology by TEM” value is on record as “oligomers”.
